The record followed here is US9527842B2, “Inhibitors of human immunodeficiency virus replication” (priority 2013, dated 2016).

This experiment relates to recombinant NL-Rluc virus. Put plainly: Inhibition of HIV replication (NL-RLuc luciferase reporter virus in MT-2 cells). It counts as cell-based. The following applies: Human immunodeficiency virus 1, MT2, 120 h.

By EC50 is commonly meant the concentration needed to bring the measured effect to its halfway point. With `Cc1cc(CNC(=O)c2cc3c(-c4ccc5c6c(ccnc46)CCO5)c([C@H](OC(C)(C)C)C(=O)O)c(C)cn3n2)ccc1F` (atropisomer, axis not shown) [Example 2, (2S)-2-(tert-Butoxy)-2-(4-(2,3-dihydropyrano[4,3,2-de]quinolin-7-yl)-2-((4-fluoro-3-methylbenzyl)carbamoyl)-6-methylpyrazolo[1,5-a]pyridin-5-yl)acetic acid], the EC50 amounted to 63 nM.
In the case of `Cc1ccc2c(c1)-c1cccc(c1)-c1cc3c(c([C@H](OC(C)(C)C)C(=O)O)c(C)cn3n1)N1CCC(C)(CC1)OCCCCC[C@@H](C)O2` (single isomer, unassigned) [Example 31] it was 258 nM; in that of `Cc1ccc2c(c1)-c1cccc(c1)-c1cc3c(c([C@H](OC(C)(C)C)C(=O)O)c(C)cn3n1)N1CCC(C)(CC1)OCCC[C@H](C)CO2` (single isomer, unassigned) [Example 32], 178 nM; in that of `Cc1ccc2c(c1)-c1cccc(c1)-c1cc3c(c([C@H](OC(C)(C)C)C(=O)O)c(C)cn3n1)N1CCC(C)(CC1)OCCC[C@@H](C)CO2` (single isomer, unassigned) [Example 33], 116 nM.
As for `Cc1cc(CNC(=O)c2cc3c(-c4cc(F)c5c(c4C)CCCO5)c([C@H](OC(C)(C)C)C(=O)O)c(C)cn3n2)ccc1F` [Example 1], the EC50 was determined as 3 nM.
In the case of `Cc1cc(CNC(=O)c2cc3c(N4CCC(C)(C)CC4)c([C@H](OC(C)(C)C)C(=O)O)c(C)cn3n2)ccc1F` [Example 3, (S)-2-(tert-Butoxy)-2-(4-(4,4-dimethylpiperidin-1-yl)-2-((4-fluoro-3-methylbenzyl)carbamoyl)-6-methylpyrazolo[1,5-a]pyridin-5-yl)acetic acid] it was 17 nM.
Take `Cc1cn2nc(-c3ncc(Cc4ccc(F)cc4)s3)cc2c(N2CCC(C)(C)CC2)c1[C@H](OC(C)(C)C)C(=O)O` [Example 4, (S)-2-(tert-Butoxy)-2-(4-(4,4-dimethylpiperidin-1-yl)-2-(5-(4-fluorobenzyl)thiazol-2-yl)-6-methylpyrazolo[1,5-a]pyridin-5-yl)acetic acid]: the concentration giving a half-maximal response (EC50) is 18 nM.
For `Cc1cn2nc(-c3ncc(Cc4ccc(F)cc4)o3)cc2c(N2CCC(C)(C)CC2)c1[C@H](OC(C)(C)C)C(=O)O` [Example 5, (S)-2-(tert-Butoxy)-2-(4-(4,4-dimethylpiperidin-1-yl)-2-(5-(4-fluorobenzyl)oxazol-2-yl)-6-methylpyrazolo[1,5-a]pyridin-5-yl)acetic acid] the value was 5 nM; for `Cc1cn2nc3ccccc3c2c(-c2cc(F)c3c(c2C)CCCO3)c1[C@H](OC(C)(C)C)C(=O)O` [Example 25, (2S)-2-(tert-Butoxy)-2-(10-(8-fluoro-5-methylchroman-6-yl)-8-methylpyrido[1,2-b]indazol-9-yl)acetic acid], 37 nM.
For `Cc1cn2nc3cc2c(c1[C@H](OC(C)(C)C)C(=O)O)N1CCC(C)(CC/C=C/COc2cc(F)ccc2CNC3=O)CC1` [Example 26, (2S)-2-(tert-Butoxy)-2-[(21E)-16-fluoro-4,25-dimethyl-10-oxo-19-oxa-1,6,11,30-tetraazapentacyclo[23.2.2.1^6,^9.0^2,^7.0^13,^18]triaconta-2,4,7,9(30),13(18),14,16,21-octaen-3-yl]acetic acid] the value was 6 nM; for `Cc1cn2nc3cc2c(c1[C@H](OC(C)(C)C)C(=O)O)N1CCC(C)(CC1)OC/C=C/COc1ccccc1Cc1cnc-3s1` [Example 27, (2S)-2-(tert-Butoxy)-2-[(23E)-4,27-dimethyl-21,26-dioxa-32-thia-1,6,11,33-tetraazahexacyclo[25.2.2.1^6,^9.1^10,^13.0^2,^7.0^15,^20]tritriaconta-2,4,7,9 (33),10,12,15(20),16,18,23-decaen-3-yl]acetic acid], 4 nM.
Take `C=CCOC1(C)CCN(c2c([C@H](OC(C)(C)C)C(=O)O)c(C)cn3nc(-c4cccc(Br)c4)cc23)CC1` [Example 28, (S)-2-(4-(4-(Allyloxy)-4-methylpiperidin-1-yl)-2-(3-bromophenyl)-6-methylpyrazolo[1,5-a]pyridin-5-yl)-2-(tert-butoxy)acetic acid]: the EC50 was determined as 138 nM.
Regarding `Cc1ccc2c(c1)-c1cccc(c1)-c1cc3c(c([C@H](OC(C)(C)C)C(=O)O)c(C)cn3n1)N1CCC(C)(CC1)OCCCC[C@H](C)O2` [Example 29, (2S)-2-(tert-Butoxy)-21[(22S)-4,17,22,28-tetramethyl-21,27-dioxa-1,6,34-triazahexacyclo[26.2.2.1^6,^9.1^10,^14.0^2,^7.0^15,^20]tetratriaconta-2,4,7,9 (34),10(33),11,13,15(20),16,18-decaen-3-yl]acetic acid], the concentration giving a half-maximal response (EC50) is 40 nM.
In the case of `Cc1ccc2c(c1)-c1cccc(c1)-c1cc3c(c([C@H](OC(C)(C)C)C(=O)O)c(C)cn3n1)N1CCC(C)(CC1)OCCCCC[C@H](C)O2` [Example 30, (2S)-2-(tert-Butoxy)-2-[(22S)-4,17,22,29-tetramethyl-21,28-dioxa-1,6,35-triazahexacyclo[27.2.2.1^6,^9.1^10,^14.0^2,^7.0^15,^20]pentatriaconta-2,4,7,9 (35),10(34),11,13,15(20),16,18-decaen-3-yl]acetic acid] it was 84 nM; in that of `Cc1cn2nc3cc2c(c1[C@H](OC(C)(C)C)C(=O)O)N1CCC(C)(CC1)OCCCC[C@H](C)Oc1cccc(F)c1-c1cccc-3c1` [Example 34, (2S)-2-(tert-Butoxy)-2-[(22S)-16-fluoro-4,22,28-trimethyl-21,27-dioxa-1,6,34-triazahexacyclo[26.2.2.1^6,^9.1^10,^14.0^2,^7.0^15,^20]tetratriaconta-2,4,7,9(34),10(33),11,13,15(20),16,18-decaen-3-yl]acetic acid], 14 nM.
Consider `CCC[C@H](C)Oc1cccc(F)c1-c1cccc(-c2cc3c(N4CCC(C)(O)CC4)c([C@H](OC(C)(C)C)C(=O)O)c(C)cn3n2)c1` [Example 35, (2S)-2-(tert-Butoxy)-2-[2-(3-{2-fluoro-6-[(2S)-pentan-2-yloxy]phenyl}phenyl)-4-(4-hydroxy-4-methylpiperidin-1-yl)-6-methylpyrazolo[1,5-a]pyridin-5-yl]acetic acid], for which the concentration giving a half-maximal response (EC50) is 607 nM.
With `Cc1cn2nc3cc2c(c1[C@H](OC(C)(C)C)C(=O)O)N1CCC(C)(CC1)OCCCC[C@H](C)Oc1ccc(F)cc1-c1cccc-3c1` [Example 36, (2S)-2-(tert-Butoxy)-2-[(22S)-17-fluoro-4,22,28-trimethyl-21,27-dioxa-1,6,34-triazahexacyclo[26.2.2.1^6,^9.1^10,^14.0^2,^7.0^15,^20]tetratriaconta-2,4,7,9(34),10(33),11,13,15(20),16,18-decaen-3-yl]acetic acid], the EC50 is 50 nM.
For `Cc1cn2nc3cc2c(c1[C@H](OC(C)(C)C)C(=O)O)N1CCC(C)(CC1)OCCC[C@H](C)Oc1ccc(F)cc1-c1cccc-3c1` [Example 37, (2S)-2-(tert-Butoxy)-2-[(22S)-17-fluoro-4,22,27-trimethyl-21,26-dioxa-1,6,33-triazahexacyclo[25.2.2.1^6,^9.1^10,^14.0^2,^7.0^15,^20]tritriaconta-2,4,7,9(33),10(32),11,13,15(20),16,18-decaen-3-yl]acetic acid] the value was 29 nM.
